From US12491185B2, “Inhibitors of mPTP” (NRG Therapeutics Ltd, priority 2023, dated 2025)

How the values were obtained:
[1] = tested on: mPTP; experiment: mPTP activity (Ca2+ retention) assay in isolated rat liver mitochondria; assay type: biochemical; details: examples tested by different contract research organisations, believed comparable
Procedure, shortened: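 pIC50 was taken from Fluo5N fluorescence at 10 min after a 75 μM CaCl2 bolus, scaled between DMSO (0%) and 5 μM cyclosporin A (100%). Compounds, ten half-log concentrations from 30 μM to 1 nM final, sat 10 min at RT with fresh female Sprague Dawley rat liver mitochondria energized by succinate plus rotenone.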

[2] = tested on: mPTP; experiment: mPTP activity assay in isolated rat brain mitochondria; assay type: biochemical; details: for mPTP Rat brain pIC50: fluorescence at 10 min timepoint
Experimental: MPTP activity was measured in brain mitochondria freshly isolated from female Sprague Dawley (250 to 300 gram) rats. Anaesthetised rats were perfused in-situ with −40 ml cold Dulbecco's Phosphate Buffered Saline (DPBS), then brains dissected and transferred into 30 ml Isolation Buffer (225 mM mannitol, 75 mM sucrose, 1 mM EGTA, adjusted to pH 7.4 with 1M NaOH). The brain was minced using tweezers and a scalpel into −5 mm pieces then transferred into a 50 ml Potterton Dounce homogenization tube on ice containing 10 ml ice-cold isolation buffer (as above with addition of Complete Protease inhibitor; 1 tablet per 50 ml buffer). Homogenisation was carried out using a teflon pestle at 1800 rpm. The slurry was centrifuged at 2000 g for 10 min at 4° C., then the supernatant centrifuged at 12,000 g for 9 min. The pellet was resuspended with a dounce homogeniser in isolation buffer as above but with the addition of 0.02% digitonin, centrifuged at 12,000 g for 11 min and finally resuspended in 5 ml modified isolation buffer (as above but with EGTA reduced to 0.1 mM).
Test compounds were prepared in 384 well polypropylene assay plates as described above for the liver mitochondria assay. A stock mitochondria/Fluo5N assay solution was prepared in 5.6 ml assay buffer (120 mM mannitol, 40 mM MOPS, 5 mM KH2PO4, 60 mM KCl, 10 mM pyruvate, 2 mM malate, 2 mM MgCl2, 20 μM ADP, 1.26 μM oligomycin A, adjusted to pH 7.4) supplemented with Fluo5N pentapotassium salt (2 μM) and 1 ml mitochondria suspension, then transferred (15 μl) into the assay plate containing test compounds and incubated for 10 min at RT. Assay plates were then transferred to a FLIPR Tetra plate reader (Molecular Devices). Dye fluorescence was then measured every 3 sec for a total of 10 min.

For `CC(CNC(=O)c1ncc(F)c(=O)[nH]1)(Cc1ccc(F)cc1)C1CC1` (single isomer, unassigned) [Example 261, N-[2-cyclopropyl-3-(4-fluorophenyl)-2-methylpropyl]-5-fluoro-4-oxo-3H-pyrimidine-2-carboxamide], the “mPTP Rat liver pIC50” value [1] was 7.13 and the “mPTP Rat brain pIC50” value [2] was 8.29.

For `CC(CNC(=O)c1ncc(F)c(=O)[nH]1)(Cc1ccc(F)cc1)C1CC1` (single isomer, unassigned) [Example 262, N-[2-cyclopropyl-3-(4-fluorophenyl)-2-methylpropyl]-5-fluoro-4-oxo-3H-pyrimidine-2-carboxamide], the “mPTP Rat liver pIC50” value [1] was 6.00 and the “mPTP Rat brain pIC50” value [2] was 7.45.

With `CC(CNC(=O)c1ncc(Cl)c(=O)[nH]1)(Cc1ccc(F)cc1)C1CC1` (single isomer, unassigned) [Example 263, 5-Chloro-N-[2-cyclopropyl-3-(4-fluorophenyl)-2-methylpropyl]-4-oxo-3H-pyrimidine-2-carboxamide] the “mPTP Rat liver pIC50” value [1] was 6.54 and the “mPTP Rat brain pIC50” value [2] was 8.09.

For `CC(CNC(=O)c1ncc(Cl)c(=O)[nH]1)(Cc1ccc(F)cc1)C1CC1` (single isomer, unassigned) [Example 264, 5-Chloro-N-[2-cyclopropyl-3-(4-fluorophenyl)-2-methylpropyl]-4-oxo-3H-pyrimidine-2-carboxamide], the “mPTP Rat liver pIC50” value [1] was 6.09 and the “mPTP Rat brain pIC50” value [2] was 7.29.

For `Cc1cnc(C(=O)NCC(C)(Cc2ccc(F)cc2)C2CC2)[nH]c1=O` (single isomer, unassigned) [Example 267], the “mPTP Rat liver pIC50” value [1] was 6.55 and the “mPTP Rat brain pIC50” value [2] was 7.32.

`Cc1cnc(C(=O)NCC(C)(Cc2ccc(F)cc2)C2CC2)[nH]c1=O` (single isomer, unassigned) [Example 268] was tested, and the “mPTP Rat liver pIC50” value [1] was 6.04 and the “mPTP Rat brain pIC50” value [2] was 7.02.

For `CC(CNC(=O)c1cc(O)no1)(Cc1ccc(F)cc1F)C1CC1` (single isomer, unassigned) [Example 269], the “mPTP Rat liver pIC50” value [1] was 6.78 and the “mPTP Rat brain pIC50” value [2] was 7.73.

For `CC(CNC(=O)c1cc(O)no1)(Cc1ccc(F)cc1F)C1CC1` (single isomer, unassigned) [Example 270], the “mPTP Rat liver pIC50” value [1] was 5.39 and the “mPTP Rat brain pIC50” value [2] was 6.51.

In the case of `CC(CNC(=O)c1cc(O)no1)(Cc1ccc(F)cc1)C1CC1` (single isomer, unassigned) [Example 271], the “mPTP Rat liver pIC50” value [1] is reported as 6.83 and the “mPTP Rat brain pIC50” value [2] is reported as 7.59.

With `CC(CNC(=O)c1cc(O)no1)(Cc1ccc(F)cc1)C1CC1` (single isomer, unassigned) [Example 272] the “mPTP Rat liver pIC50” value [1] was 4.52 and the “mPTP Rat brain pIC50” value [2] was 6.35.

With `CC(CNC(=O)c1noc(=O)[nH]1)(Cc1ccc(F)cc1F)C1CC1` (single isomer, unassigned) [Example 273] the “mPTP Rat liver pIC50” value [1] was 6.50 and the “mPTP Rat brain pIC50” value [2] was 7.92.

With `CC(CNC(=O)c1noc(=O)[nH]1)(Cc1ccc(F)cc1F)C1CC1` (single isomer, unassigned) [Example 274] the “mPTP Rat liver pIC50” value [1] was 6.85 and the “mPTP Rat brain pIC50” value [2] was 8.5.

In the case of `CC(CNC(=O)c1noc(=O)[nH]1)(Cc1ccc(F)cc1)C1CC1` (single isomer, unassigned) [Example 275, N-(2-cyclopropyl-3-(4-fluorophenyl)-2-methylpropyl)-5-oxo-4,5-dihydro-1,2,4-oxadiazole-3-carboxamide], the “mPTP Rat liver pIC50” value [1] is reported as 6.75, the “mPTP rat brain mitochondria pIC50” value ([2]; Fluo5N fluorescence at 10 min after 75 μM Ca2+) is reported as “highest activity” and the “mPTP Rat brain pIC50” value [2] is reported as 8.57.

For `CC(CNC(=O)c1noc(=O)[nH]1)(Cc1ccc(F)cc1)C1CC1` (single isomer, unassigned) [Example 276, N-(2-cyclopropyl-3-(4-fluorophenyl)-2-methylpropyl)-5-oxo-4,5-dihydro-1,2,4-oxadiazole-3-carboxamide], the “mPTP Rat liver pIC50” value [1] was 5.82 and the “mPTP Rat brain pIC50” value [2] was 7.27.

`O=C(NCC1(Cc2ccccc2)CCC1)c1cncc(O)c1` [Example 1, N-((1-benzylcyclobutyl)methyl)-5-hydroxynicotinamide] was tested, and the “mPTP Rat liver pIC50” value [1] was 6.10 and the “mPTP Rat brain pIC50” value [2] was 7.27.

`O=C(NCC1(Cc2ccccc2)CCC1)c1cncc(O)n1` [Example 2, N-((1-benzylcyclobutyl)methyl)-6-hydroxypyrazine-2-carboxamide] was tested, and the “mPTP Rat liver pIC50” value [1] was 5.64 and the “mPTP Rat brain pIC50” value [2] was 6.95.

With `Cc1ncc(C(=O)NCC2(Cc3ccccc3)CCC2)cc1O` [Example 3, N-((1-benzylcyclobutyl)methyl)-5-hydroxy-6-methylnicotinamide] the “mPTP Rat liver pIC50” value [1] was 6.02 and the “mPTP Rat brain pIC50” value [2] was 6.89.

For `Cc1c(O)cncc1C(=O)NCC1(Cc2ccccc2)CCC1` [Example 4, N-((1-benzylcyclobutyl)methyl)-5-hydroxy-4-methylnicotinamide], the “mPTP Rat liver pIC50” value [1] was 5.77 and the “mPTP Rat brain pIC50” value [2] was 6.56.

In the case of `O=C(NCC1(Cc2ccccc2)CCC1)c1cnn[nH]1` [Example 5, N-((1-benzylcyclobutyl)methyl)-1H-1,2,3-triazole-5-carboxamide], the “mPTP Rat liver pIC50” value [1] is reported as 5.61 and the “mPTP Rat brain pIC50” value [2] is reported as 6.72.

`O=C(NCC1(Cc2ccccc2)CCC1)c1nccc(=O)[nH]1` [Example 7, N-((1-benzylcyclobutyl)methyl)-6-oxo-1,6-dihydropyrimidine-2-carboxamide] was tested, and the “mPTP Rat liver pIC50” value [1] was 5.97 and the “mPTP Rat brain pIC50” value [2] was 7.42.

With `O=C(NCC1(Cc2ccccc2)CCC1)c1nc(=O)[nH][nH]1` [Example 8, N-((1-benzylcyclobutyl)methyl)-5-oxo-2,5-dihydro-1H-1,2,4-triazole-3-carboxamide] the “mPTP Rat liver pIC50” value [1] was 6.32 and the “mPTP Rat brain pIC50” value [2] was 7.40.

`Cc1cnc(C(=O)NCC2(Cc3ccccc3)CCC2)[nH]c1=O` [Example 9, N-((1-benzylcyclobutyl)methyl)-5-methyl-6-oxo-1,6-dihydropyrimidine-2-carboxamide] was tested, and the “mPTP Rat liver pIC50” value [1] was 6.14 and the “mPTP Rat brain pIC50” value [2] was 7.33.

For `Cn1nc(C(=O)NCC2(Cc3ccccc3)CCC2)[nH]c1=O` [Example 10, N-((1-benzylcyclobutyl)methyl)-1-methyl-5-oxo-4,5-dihydro-1H-1,2,4-triazole-3-carboxamide], the “mPTP Rat liver pIC50” value [1] was 6.58 and the “mPTP Rat brain pIC50” value [2] was 7.42.

In the case of `CN(CC1(Cc2ccccc2)CCC1)C(=O)c1cncc(O)n1` [Example 11, N-((1-benzylcyclobutyl)methyl)-6-hydroxy-N-methylpyrazine-2-carboxamide], the “mPTP Rat liver pIC50” value [1] is reported as 5.18 and the “mPTP Rat brain pIC50” value [2] is reported as 6.48.

`CC(C)(CNC(=O)c1cncc(O)n1)Cc1ccccc1` [Example 12, N-(2,2-dimethyl-3-phenylpropyl)-6-hydroxypyrazine-2-carboxamide] was tested, and the “mPTP Rat liver pIC50” value [1] was 5.70 and the “mPTP Rat brain pIC50” value [2] was 7.08.

`O=C(NCC1(Cc2ccccc2F)CCC1)c1cncc(O)n1` [Example 13, N-((1-(2-fluorobenzyl)cyclobutyl)methyl)-6-hydroxypyrazine-2-carboxamide] was tested, and the “mPTP Rat liver pIC50” value [1] was 5.33 and the “mPTP Rat brain pIC50” value [2] was 7.74.

For `CCn1nc(C(=O)NCC2(Cc3ccccc3)CCC2)[nH]c1=O` [Example 14, N-((1-benzylcyclobutyl)methyl)-1-ethyl-5-oxo-4,5-dihydro-1H-1,2,4-triazole-3-carboxamide], the “mPTP Rat liver pIC50” value [1] was 5.63 and the “mPTP Rat brain pIC50” value [2] was 6.94.

For `O=C(NCC1(Cc2c(F)cccc2F)CCC1)c1cncc(=O)[nH]1` [Example 15, N-((1-(2,6-difluorobenzyl)cyclobutyl)methyl)-6-oxo-1,6-dihydropyrazine-2-carboxamide], the “mPTP Rat liver pIC50” value [1] was 5.92 and the “mPTP Rat brain pIC50” value [2] was 7.65.

`O=C(NCC1(Cc2cccc(F)c2F)CCC1)c1cncc(=O)[nH]1` [Example 17, N-((1-(2,3-difluorobenzyl)cyclobutyl)methyl)-6-oxo-1,6-dihydropyrazine-2-carboxamide] was tested, and the “mPTP Rat liver pIC50” value [1] was 6.05 and the “mPTP Rat brain pIC50” value [2] was 6.96.

In the case of `O=C(NCC1(Cc2ccccc2)CCCC1)c1cncc(=O)[nH]1` [Example 18, N-((1-benzylcyclopentyl)methyl)-6-oxo-1,6-dihydropyrazine-2-carboxamide], the “mPTP Rat liver pIC50” value [1] is reported as 5.55 and the “mPTP Rat brain pIC50” value [2] is reported as 7.04.

In the case of `Cc1ccccc1CC1(CNC(=O)c2cncc(=O)[nH]2)CCC1` [Example 19, N-((1-(2-methylbenzyl)cyclobutyl)methyl)-6-oxo-1,6-dihydropyrazine-2-carboxamide], the “mPTP Rat liver pIC50” value [1] is reported as 5.41 and the “mPTP Rat brain pIC50” value [2] is reported as 7.35.

In the case of `Cn1nc(C(=O)NCC2(Cc3ccccc3F)CCC2)[nH]c1=O` [Example 20, N-((1-(2-fluorobenzyl)cyclobutyl)methyl)-1-methyl-5-oxo-4,5-dihydro-1H-1,2,4-triazole-3-carboxamide], the “mPTP Rat liver pIC50” value [1] is reported as 6.44 and the “mPTP Rat brain pIC50” value [2] is reported as 7.55.

In the case of `Cn1nc(C(=O)NCC2(Cc3c(F)cccc3F)CCC2)[nH]c1=O` [Example 21, N-((1-(2,6-difluorobenzyl)cyclobutyl)methyl)-1-methyl-5-oxo-4,5-dihydro-1H-1,2,4-triazole-3-carboxamide], the “mPTP Rat liver pIC50” value [1] is reported as 6.09 and the “mPTP Rat brain pIC50” value [2] is reported as 7.63.
